We go through three compounds from DBAASP.

In brackets after ≈: the same amount, converted by molar mass.

Among the test systems are Escherichia coli DC2; Escherichia coli UB1005; Candida albicans C627; Escherichia coli K88.
Common to all, as to experiment: ≥ marks a high value that may be exact or a test limit, other limits are often not marked, values filed in µg/mL are converted to µM
Test [1] deals with Mycobacterium tuberculosis WXY.
The subject of test [2] is Mycobacterium tuberculosis H37Rv.
For test [3], the system named is Mycobacterium tuberculosis CAS3.
For test [4], the system named is Salmonella enterica serovar typhimurium MS7953s.
Test [5] deals with Staphylococcus epidermidis C621.
The subject of test [6] is Salmonella enterica subsp. enterica serovar Typhimurium ATCC 14028s.
Test [7] has as its system Pseudomonas aeruginosa K799.
Test [8] has as its system Staphylococcus aureus C623.
The test system of test [9] is Aeromonas salmonicida 99-1.
Test [10] has as its system Escherichia coli CGSC 4908.
In test [11] the test system is Pseudomonas aeruginosa Z61.
Test [12] relates to Aeromonas salmonicida 97-4.
Test [13] has as its system Staphylococcus aureus ATCC 29213.
For test [14], the system named is Lacticaseibacillus rhamnosus 1.9021.
The subject of test [15] is Streptococcus agalactiae BNCC 185941.
Test [16] concerns Salmonella enterica subsp. enterica serovar Typhimurium ATCC 14028.
The subject of test [17] is Lacticaseibacillus rhamnosus 8014.
Test [18] relates to Staphylococcus aureus ATCC 43300.
The subject of test [19] is Salmonella enterica subsp. enterica serovar Choleraesuis CVCC 503.
Test [20] concerns Staphylococcus epidermidis ATCC 12228.
Test [21] has as its system Lacticaseibacillus rhamnosus 1.0936.
In test [22] the test system is Escherichia coli O157:H7 CICC 21530.
Test [23] relates to Salmonella enterica subsp. enterica serovar Pullorum C79-13.
Test [24] concerns Lacticaseibacillus rhamnosus 1.0911.
Test [25] has as its system Pseudomonas aeruginosa ATCC 27853.
The subject of test [26] is Pseudomonas aeruginosa PAO1.

In general, MIC refers to the least concentration at which growth counts as inhibited. A low value points to a more susceptible organism. `CC(C)C[C@H](NC(=O)[C@H](C)NC(=O)[C@H](C)NC(=O)[C@@H](NC(=O)[C@H](C)N)C(C)C)C(=O)N[C@@H](CC(C)C)C(=O)N[C@@H](CCCN=C(N)N)C(=O)N[C@@H](Cc1c[nH]c2ccccc12)C(=O)N[C@@H](Cc1c[nH]c2ccccc12)C(=O)N[C@@H](CO)C(=O)N[C@@H](CCCN=C(N)N)C(=O)N[C@@H](Cc1c[nH]c2ccccc12)C(=O)N[C@@H](Cc1c[nH]c2ccccc12)C(=O)N[C@@H](C)C(=O)N[C@@H](C)C(=O)O` [AVAALLRWWSRWWAA]: the MIC in test [1], in test [2] and in [3] was ≥ 40.7 µM each time.
For `CC(=O)[C@H](C)NC(=O)[C@H](Cc1ccccc1)NC(=O)[C@H](Cc1cnc[nH]1)NC(=O)[C@H](CCCNC(=N)N)NC(=O)[C@H](CCC(N)=O)NC(=O)[C@H](CO)NC(=O)[C@H](CC(C)C)NC(=O)[C@H](CCCNC(=N)N)NC(=O)[C@H](CCC(=O)O)NC(=O)CNC(=O)[C@H](CCCCN)NC(=O)[C@@H](NC(=O)[C@H](Cc1ccccc1)NC(=O)[C@H](Cc1c[nH]c2ccccc12)NC(=O)[C@H](CCCCN)NC(=O)[C@H](CCCCN)NC(=O)[C@H](Cc1c[nH]c2ccccc12)NC(=O)CN)[C@@H](C)O` [GWKKWFTKGERLSQRHFA], the MIC in [4] turned out to be 14.1 µM (≈ 32 µg/mL); in test [5], 28.3 µM (≈ 63.9 µg/mL); against Escherichia coli DC2 it was 28.3 µM (≈ 63.9 µg/mL); in test [6], 28.3 µM (≈ 63.9 µg/mL); in test [7], 28.3 µM (≈ 63.9 µg/mL); in test [8] it was 28.3 µM (≈ 63.9 µg/mL). For the same compound, the minimal inhibitory concentration (MIC) in test [9] is 28.3 µM (≈ 63.9 µg/mL); against Escherichia coli UB1005 it was 28.3 µM (≈ 63.9 µg/mL); in [10] it was 28.3 µM (≈ 63.9 µg/mL); in test [11] it was 28.3 µM (≈ 63.9 µg/mL); in test [12], ≥ 56.6 µM; with Candida albicans C627, 28.3 µM (≈ 63.9 µg/mL).
Consider `CC(C)C[C@H](NC(=O)[C@H](CCCCN)NC(=O)CNC(=O)[C@H](CCCCN)NC(=O)[C@H](CC(C)C)NC(=O)[C@H](Cc1c[nH]c2ccccc12)NC(=O)[C@H](CC(C)C)NC(=O)[C@H](CCCCN)NC(=O)CNC(=O)[C@H](CCCCN)NC(=O)[C@@H](N)CC(C)C)C(N)=O` [LKGKLWLKGKL], for which the MIC in test [13] was > 128 µM; in test [14] it was ≥ 128 µM; in [15], ≥ 128 µM; in test [16], 64 µM (≈ 82.1 µg/mL); in the test with Escherichia coli K88, 8 µM (≈ 10.3 µg/mL); in test [17], ≥ 128 µM. In addition, the MIC is > 128 µM in test [18]; ≥ 128 µM in test [19]; > 128 µM in test [20]; ≥ 128 µM in [21]; ≥ 64 µM in test [22]; 8 µM (≈ 10.3 µg/mL) in [23]. Besides, the MIC in [24] was ≥ 128 µM; in [25], 32 µM (≈ 41 µg/mL); in [26] it was 32 µM (≈ 41 µg/mL).
